From ChEMBL document CHEMBL5634141 (Eur J Med Chem, 2023)
pIC50: −log10 of the molar value. Activity calls are given as the source filed them. The calls are words filed in the database; no cut-off is given here.

Key:
[1] = tested on: NCI-H358; experiment: Antiproliferative activity against human NCI-H358 cells expressing KRAS G12C mutant assessed as inhibition of cell growth incubated for 72 hrs by CCK-8 assay; type: functional, cell-based; details: NCI-H358, 72 h
[2] = tested on: MIA PaCa-2; experiment: Antiproliferative activity against human MIA PaCa-2 cells expressing KRAS G12C mutant assessed as inhibition of cell growth incubated for 72 hrs by CCK-8 assay; type: functional, cell-based; details: MIA PaCa-2, 72 h
[3] = tested on: ASPC1; experiment: Antiproliferative activity against human ASPC1 cells expressing KRAS G12D mutant assessed as inhibition of cell growth incubated for 72 hrs by CCK-8 assay; type: functional, cell-based; details: ASPC1, 72 h
[4] = Cytotoxicity against HEK293T cells assessed as inhibition of cell growth incubated for 72 hrs by CCK-8 assay; type: toxicity, cell-based, HEK-293T; details: human
[5] = tested on: von Hippel-Lindau disease tumor suppressor/GTPase KRas (Homo sapiens), P01116+P40337 [G12C]; experiment: PROTAC activity at VHL/KRAS G12C mutant in human MIA PaCa-2 cells assessed as induction of protein degradation by measuring maximal efficacy by Western blotting analysis relative to control; type: cell-based
[6] = tested on: von Hippel-Lindau disease tumor suppressor/GTPase KRas (Homo sapiens), P01116+P40337 [G12C]; experiment: PROTAC activity at VHL/KRAS G12C mutant in human NCI-H358 cells assessed as induction of protein degradation at 100 nM incubated for 48 hrs by Western blotting analysis relative to control; type: cell-based
[7] = tested on: von Hippel-Lindau disease tumor suppressor/GTPase KRas (Homo sapiens), P01116+P40337 [G12C]; experiment: PROTAC activity at VHL/KRAS G12C mutant in human MIA PaCa-2 cells assessed as induction of protein degradation at 100 nM incubated for 48 hrs by Western blotting analysis relative to control; type: cell-based
[8] = tested on: von Hippel-Lindau disease tumor suppressor/GTPase KRas (Homo sapiens), P01116+P40337 [G12C]; experiment: PROTAC activity at VHL/KRAS G12C mutant in human NCI-H358 cells assessed as inhibition of ERK phosphorylation incubated for 48 hrs by Western blotting analysis; type: cell-based; details: dose 10-10000 nM
[9] = tested on: von Hippel-Lindau disease tumor suppressor/GTPase KRas (Homo sapiens), P01116+P40337 [G12C]; experiment: Protac activity at VHL/KRAS G12C mutant in human NCI-H358 cells assessed as induction of protein degradation at 100 nM preincubated with VH032 for 6 hrs followed by compound addition and measured after 48 hrs by Western blot analysis; type: cell-based
[10] = tested on: NCI-H358; experiment: Induction of apoptosis in human NCI-H358 cells assessed as necrotic cells at 30 nM incubated for 48 hrs by Annexin V-FITC staining based flow cytometry analysis (reference value: 1.62 %); type: functional
[11] = tested on: NCI-H358; experiment: Induction of apoptosis in human NCI-H358 cells assessed as viable cells at 100 nM incubated for 48 hrs by Annexin V-FITC staining based flow cytometry analysis (reference value: 91.6 %); type: functional; details: read-out: Activity
[12] = tested on: NCI-H358; experiment: Induction of apoptosis in human NCI-H358 cells assessed as late apoptotic cells at 300 nM incubated for 48 hrs by Annexin V-FITC staining based flow cytometry analysis (reference value: 5.20 %); type: functional
[13] = tested on: MIA PaCa-2; experiment: Induction of apoptosis in human MIA PaCa-2 cells assessed as early apoptotic cells at 100 nM incubated for 48 hrs by Annexin V-FITC staining based flow cytometry analysis (reference value: 1.55 %); type: functional
[14] = tested on: MIA PaCa-2; experiment: Inhibition of cell migration in human MIA PaCa-2 cells incubated for 12 hrs by wound healing assay; type: functional, cell-based; details: dose 30-300 nM
[15] = tested on: MIA PaCa-2; experiment: Antitumor activity against human MIA PaCa-2 cells xenografted in BALB/c nude mouse assessed as tumor growth inhibition at 10 mg/kg, ip measured after 8 days relative to control; type: functional; details: MIA PaCa-2, 192 h, time 8 day, read-out: TGI
[16] = tested on: Mus musculus; experiment: In vivo PROTAC activity at VHL/KRAS G12C mutant in BALB/c nude mouse xenografted with human MIA PaCa-2 cells assessed as decrease in KRAS level at 10 to 30 mg/kg, ip administered for 16 days by Western blot analysis; type: functional, organism-based; details: dose 10-30 mg/kg, time 16.0 day
[17] = tested on: Mus musculus; experiment: In vivo PROTAC activity at VHL/KRAS G12C mutant in BALB/c nude mouse xenografted with human MIA PaCa-2 cells assessed as decrease in ERK phosphorylation at 10 to 30 mg/kg, ip administered for 16 days by Western blot analysis; type: functional, organism-based; details: dose 10-30 mg/kg, time 16.0 day
[18] = Clearance in ICR mouse at 2 mg/kg, iv measured after 24 hrs by LC-MS/MS analysis; type: ADME, organism-based; details: in vivo
[19] = tested on: Calu-1; experiment: Antiproliferative activity against human Calu-1 cells expressing KRAS G12C mutant assessed as relative cell viability at 30 nM incubated for 72 hrs by CCK-8 assay; type: functional; details: Calu-1, read-out: Activity
[20] = tested on: SW837; experiment: Antiproliferative activity against human SW837 cells expressing KRAS G12C mutant assessed as relative cell viability at 30 nM incubated for 72 hrs in presence of infigratinib by CCK-8 assay; type: functional; details: read-out: Activity
[21] = tested on: Calu-1; experiment: Antiproliferative activity against human Calu-1 cells expressing KRAS G12C mutant assessed as relative cell viability at 30 nM incubated for 72 hrs in presence of crizotinib by CCK-8 assay; type: functional; details: read-out: Activity
[22] = tested on: MIA PaCa-2; experiment: Antiproliferative activity against human MIA PaCa-2 cells expressing KRAS G12C mutant assessed as relative cell viability at 30 nM incubated for 72 hrs in presence of selumetinib by CCK-8 assay; type: functional; details: read-out: Activity
[23] = tested on: NCI-H23; experiment: Antiproliferative activity against human NCI-H23 cells expressing KRAS G12C mutant assessed as relative cell viability at 30 nM incubated for 72 hrs in presence of selumetinib by CCK-8 assay; type: functional; details: read-out: Activity
[24] = tested on: Calu-1; experiment: Antiproliferative activity against human Calu-1 cells expressing KRAS G12C mutant assessed as relative cell viability at 30 nM incubated for 72 hrs in presence of selumetinib by CCK-8 assay; type: functional; details: read-out: Activity
[25] = tested on: SW837; experiment: Antiproliferative activity against human SW837 cells expressing KRAS G12C mutant assessed as relative cell viability at 30 nM incubated for 72 hrs in presence of selumetinib by CCK-8 assay; type: functional; details: read-out: Activity
[26] = tested on: Calu-1; experiment: Antiproliferative activity against human Calu-1 cells expressing KRAS G12C mutant assessed as relative cell viability at 30 nM incubated for 72 hrs in presence of naporafenib by CCK-8 assay; type: functional; details: read-out: Activity
[27] = tested on: SW837; experiment: Antiproliferative activity against human SW837 cells expressing KRAS G12C mutant assessed as relative cell viability at 30 nM incubated for 72 hrs in presence of naporafenib by CCK-8 assay; type: functional; details: read-out: Activity
[28] = tested on: NCI-H358; experiment: Synergistic antiproliferative activity against human NCI-H358 cells expressing KRAS G12C mutant assessed as combination index at 30 nM incubated for 72 hrs in presence of crizotinib by CCK-8 assay; type: functional
[29] = tested on: NCI-H358; experiment: Synergistic antiproliferative activity against human NCI-H358 cells expressing KRAS G12C mutant assessed as combination index at 30 nM incubated for 72 hrs in presence of MK-2206 by CCK-8 assay; type: functional
[30] = tested on: NCI-H358; experiment: Synergistic antiproliferative activity against human NCI-H358 cells expressing KRAS G12C mutant assessed as combination index incubated for 72 hrs in presence of linsitinib by CCK-8 assay; type: functional
[31] = tested on: von Hippel-Lindau disease tumor suppressor/GTPase KRas (Homo sapiens), P01116+P40337 [G12C]; experiment: PROTAC activity at VHL/KRAS G12C mutant in human MIA PaCa-2 cells assessed as induction of protein degradation at 100 nM incubated for 48 hrs followed by compound washout and measured after 48 hrs by Western blotting analysis; type: cell-based
[32] = Toxicity in ICR mouse assessed as side effects at 30 mg/kg, ip measured after 24 hrs; type: organism-based; details: in vivo

## C=CC(=O)N1CCN(c2nc(=O)n(-c3c(C)ccnc3C(C)C)c3nc(-c4c(F)cccc4OCC4CCN(CCCC(=O)N[C@H](C(=O)N5C[C@H](O)C[C@H]5C(=O)NCc5ccc(-c6scnc6C)cc5)C(C)(C)C)CC4)c(F)cc23)[C@@H](C)C1
[1]
  pIC50: 7.04
[2]
  pIC50: 7.35
[3]
  pIC50: < 5.00
[4]
  IC50 at 72 h: > 10000 nM
[5]
  Emax: > 95%
[6]
  Activity: 100%
[7]
  Activity: 100%
[8]
  Activity: Dose-Dependent Effect
[9]
  Activity: inactive
[10]
  Activity: 1.01%
[11]
  viability at 0.1 µM: 85.9%
[12]
  Activity: 14.6%
[13]
  Activity: 6.73%
[14]
  inhibition: Dose-Dependent Effect
[15]
  inhibition in vivo at 10 mg/kg: 93.4%
[16]
  Activity: Active
[17]
  Activity: Active
[18]
  clearance: 84.2 mL/min/kg
[19]
  viability at 0.03 µM: 77%
[20]
  viability at 0.03 µM: 0.34%
[21]
  viability at 0.03 µM: 0.31%
[22]
  viability at 0.03 µM: 0.1%
[23]
  viability at 0.03 µM: 0.24%
[24]
  viability at 0.03 µM: 0.13%
[25]
  viability at 0.03 µM: 0.2%
[26]
  viability at 0.03 µM: 0.44%
[27]
  viability at 0.03 µM: 0.32%
[28]
  CI: <1
[29]
  CI: <1
[30]
  CI: <1
[31]
  Activity: inactive
[32]
  Activity: Non-Toxic
